# Data published in patent US6517856B1, “Insecticide resistance assay” (priority 1998, dated 2003).
# Columns and labels:
# [1] = Octanol-water partition coefficient (Kow); format: physicochemical; conditions: method of Leo et al. (1971), mean of 3 replicates
# tobacco budworm neonates = experiment: Larval feeding disruption assay for spinosad resistance; format: in vivo, Heliothis virescens; conditions: 1.6 μg active ingredient per ml diet, 24 h
# Protocol: The Bt feeding disruption assay described above was modified to monitor spinosad resistance in tobacco budworms. Trypan Blue (Direct Blue 14, Matheson Coleman and Bell, Norwood, Ohio) was blended into artificial diet (described above) at the rate of 20 mg of dye per 100 ml diet. This diet also was formulated with 1.6 μg of spinosad active ingredient per ml diet. The spinosad was added to the diet as part of a 44.2% aqueous formulation provided to us by Dr. Clyde Sorenson (NC State University, Raleigh, N.C.). […] The blue indicator diet with spinosad was dispensed at the rate of 100 μl per well into 8-well microtitre plate strips (Nalge Nunc Int., Napersville, Ill.). The wells were sealed with strip caps (Nunc). In order to reduce condensation within the wells, caps were punctured twice with a #3 insect pin.
# Hv Franklin (spinosad susceptible) and spinosad resistant (selected) neonates of the tobacco budworm were used in all assays and were added to the assay diet within 24 h of hatch. Hv Franklin has been previously shown to be representative of other field collected H. virescens strains in spinosad toxicity. Selection of our laboratory colony of tobacco budworms which were originally collected from various locations in North Carolina, with technical spinosad applied topically each generation, produced insects that were highly resistant to spinosad.
# Bioassays were conducted at 27±1° C. with a 14:10 L:D cycle, and the number of blue fecal pellets produced were counted after a 24 h exposure of the neonates to the diet. Results were taken from two replicates consisting of 24 insects per replicate.
# H. virescens = experiment: Effect of Trypan Blue in diet on rate of feces production, third instars; format: in vivo, Heliothis virescens; conditions: no Bt, confidence interval in brackets
# Protocol: The blue diet used in the feeding disruption bioassay is an agar based insect meal containing 20 mg of Trypan Blue (Direct Blue 14; Matheson Coleman & Bell, Norwood, Ohio) per 100 ml of standard artificial diet, and containing different concentrations of CryIAc (MVP, Mycogen). Larvae feeding on this colored diet produced blue feces which were easily distinguished by observation from feces derived from other food sources. Assays were conducted in 1-ounce clear plastic cups (Solo Cup Company, Urbana, Ill.; approximately […] in diameter and ¾ inches high) fitted with white cardboard tops, which are routinely used for insect rearing in the inventors' laboratories. The clear plastic allowed for the observation of blue feces without opening the container.
# The rate of feces production was examined for third instars of both the Wake (Bt susceptible) and YHD2 (Bt resistant) strains of H. virescens, to examine the effects of adding Trypan Blue to the standard artificial diet (the “Blue diet”). Wake budworms produced 30.6 ([…], 27.6-33.6) fecal pellets/hour/15 larvae on regular diet, and 25.5 (22.5-28.5) fecal pellets/hour/15 larvae on Trypan Blue diet. This difference, although small, was statistically significant as indicated by a significant diet×time interaction (F=6.05; df=1,24; P=0.0215) (PROC GLM procedure, SAS 1991). (Data not shown). […]
# [2] = Hv spinosad selected (resistant) neonates
molecule,measurement,setting,value
COC(=O)/C=C(\C)CC/C=C(\C)CC[C@H]1OC1(C)C [juvenile hormone III],Octanol-water coefficient (Kow),[1],165.33
spinosad,percentage producing 3-5 pellets,tobacco budworm neonates; [2],2.3%
same,percentage producing >2 fecal pellets,tobacco budworm neonates; [2],100%
same,percentage producing 0-2 fecal pellets,tobacco budworm neonates; susceptible Hv Franklin neonates,100%
CC(C)CCC[C@@H](C)[C@H]1CC[C@H]2[C@@H]3CC=C4C[C@@H](O)CC[C@]4(C)[C@H]3CC[C@]12C [cholesterol],Octanol-water coefficient (Kow),[1],0.46
Cc1cc(-c2ccc(/N=N/c3c(S(=O)(=O)O)cc4cc(S(=O)(=O)O)cc(N)c4c3O)c(C)c2)ccc1/N=N/c1c(S(=O)(=O)O)cc2cc(S(=O)(=O)O)cc(N)c2c1O [Trypan Blue],rate of fecal pellet production on Trypan Blue diet,H. virescens; Wake third instars,25.5 (22.5-28.5) fecal pellets/hour/15 larvae
same,rate of fecal pellet production on Trypan Blue diet,H. virescens; YHD2 third instars,34.9 (32.5-37.3) fecal pellets per hour per 15 larvae
